Experimental findings from patent publication US20110166123A1, “NOVEL COMPOSITIONS AND METHODS OF USE” (priority 2008, published 2011) are described below.

The experiment relates to human immunodeficiency virus type 1 (HIV-1). Kind of experiment: microbe, parasite or virus in culture. Format: cell-based. The conditions noted are these: Human immunodeficiency virus 1, HeLa, 48 h, HIV-1 luciferase reporter, HeLa cells, 48 hours after infection. (Reporter assays use an easily measured gene product as a stand-in for the process of interest.)
As usually defined, the EC50 is the concentration needed to bring the measured effect to its halfway point. Higher therefore signals a less potent agent. Regarding `COc1nc2c(cc1NCc1cccc(F)c1)c(=O)c(C(=O)O)cn2[C@H](CO)C(C)C` [Example 20E, (S)-6-(3-fluorobenzylamino)-1-(1-hydroxy-3-methylbutan-2-yl)-7-methoxy-4-oxo-1,4-dihydro-1,8-naphthyridine-3-carboxylic acid], the EC50 is > 0.1 µM. Then `COc1nc2c(cc1NCc1ccc(F)c(F)c1F)c(=O)c(C(=O)O)cn2[C@H](CO)C(C)C` [Example 20EE, (S)-1-(1-hydroxy-3-methylbutan-2-yl)-7-methoxy-4-oxo-6-(2,3,4-trifluorobenzylamino)-1,4-dihydro-1,8-naphthyridine-3-carboxylic acid], with > 0.1 µM; and `COc1nc2c(cc1NCc1ccc(F)c(Cl)c1)c(=O)c(C(=O)O)cn2[C@H](CO)C(C)C` [Example 20F, (S)-6-(3-chloro-4-fluorobenzylamino)-1-(1-hydroxy-3-methylbutan-2-yl)-7-methoxy-4-oxo-1,4-dihydro-1,8-naphthyridine-3-carboxylic acid], with > 0.1 µM; and `COc1nc2c(cc1NCc1cc(F)cc(F)c1F)c(=O)c(C(=O)O)cn2[C@H](CO)C(C)C` [Example 20FF, (S)-1-(1-hydroxy-3-methylbutan-2-yl)-7-methoxy-4-oxo-6-(2,3,5-trifluorobenzylamino)-1,4-dihydro-1,8-naphthyridine-3-carboxylic acid], with > 0.1 µM. Then `COc1nc2c(cc1NCCc1cccc(Cl)c1)c(=O)c(C(=O)O)cn2[C@H](CO)C(C)C` [Example 20G, (S)-6-(3-chlorophenethylamino)-1-(1-hydroxy-3-methylbutan-2-yl)-7-methoxy-4-oxo-1,4-dihydro-1,8-naphthyridine-3-carboxylic acid], with > 0.1 µM. The figure for `COc1nc2c(cc1NCc1c(F)ccc(F)c1F)c(=O)c(C(=O)O)cn2[C@H](CO)C(C)C` [Example 20GG, (S)-1-(1-hydroxy-3-methylbutan-2-yl)-7-methoxy-4-oxo-6-(2,3,6-trifluorobenzylamino)-1,4-dihydro-1,8-naphthyridine-3-carboxylic acid] is 0.01 to 0.1 µM.

With `COc1nc2c(cc1NCc1ccc(Cl)c(F)c1)c(=O)c(C(=O)O)cn2[C@H](CO)C(C)C` [Example 20H, (S)-6-(4-chloro-3-fluorobenzylamino)-1-(1-hydroxy-3-methylbutan-2-yl)-7-methoxy-4-oxo-1,4-dihydro-1,8-naphthyridine-3-carboxylic acid], the half-maximal effective concentration (EC50) is > 0.1 µM.

As for `COc1nc2c(cc1NCc1cc(F)cc(F)c1)c(=O)c(C(=O)O)cn2[C@H](CO)C(C)C` [Example 20HH, (S)-6-(3,5-difluorobenzylamino)-1-(1-hydroxy-3-methylbutan-2-yl)-7-methoxy-4-oxo-1,4-dihydro-1,8-naphthyridine-3-carboxylic acid], the EC50 is > 0.1 µM. The figure for `COc1nc2c(cc1NCc1cccc(Cl)c1)c(=O)c(C(=O)O)cn2[C@H](CO)C(C)C` [Example 20I, (S)-6-(3-chlorobenzylamino)-1-(1-hydroxy-3-methylbutan-2-yl)-7-methoxy-4-oxo-1,4-dihydro-1,8-naphthyridine-3-carboxylic acid] is > 0.1 µM; for `COc1nc2c(cc1NCc1cc(F)c(F)cc1F)c(=O)c(C(=O)O)cn2[C@H](CO)C(C)C` [Example 20II, (S)-1-(1-hydroxy-3-methylbutan-2-yl)-7-methoxy-4-oxo-6-(2,4,5-trifluorobenzylamino)-1,4-dihydro-1,8-naphthyridine-3-carboxylic acid] it is > 0.1 µM. As to `COc1nc2c(cc1NCc1ccc(Cl)cc1)c(=O)c(C(=O)O)cn2[C@H](CO)C(C)C` [Example 20J, (S)-6-(4-chlorobenzylamino)-1-(1-hydroxy-3-methylbutan-2-yl)-7-methoxy-4-oxo-1,4-dihydro-1,8-naphthyridine-3-carboxylic acid], the EC50 is > 0.1 µM.
